Measured values published in US6576596B1, “Substituted 2-benzoyl-cyclohexan-1,3-diones with herbicidal effect” (BASF Aktiengesellschaft, priority 1997, dated 2003).

Legend:
Assay type in all cases: in vivo
Chenopodium album = assay: greenhouse herbicidal test, post-emergence treatment; conditions: 0.125 or 0.0625 kg/ha (of a.s.), Chenopodium album (lambsquarters)
Description: (§1) The culture containers used were plastic flowerpots containing loamy soil with approximately 3.0% of humus as the substrate. The seeds of the test plants were sown separately for each species.
(§2) For the post-emergence treatment, the test plants were first grown to a plant height of 3 to 15 cm, depending on the plant habit, and only then treated with the active compounds which had been suspended or emulsified in water. The test plants for this purpose were either sown directly and grown in the same containers, or they were first grown separately as seedlings and transplanted into the test containers a few days prior to treatment. The rate of application for the post-emergence treatment was 0.125.or 0.0625 kg/ha of a.s. (active substance).
(§3) Depending on the species, the plants were kept at 10-25° C. or 20-35° C. The test period extended over 2 to 4 weeks. During this time, the plants were tended, and their response to the individual treatments was evaluated.
(§4) Evaluation was carried out using a scale from 0 to 100. 100 means no emergence of the plants, or complete destruction of at least the aerial parts, and 0 means no damage, or normal course of growth.
(§5) The plants used in the greenhouse experiments belonged to the following species: […]

Echinochloa crus galli = assay: as above; conditions: 0.125 or 0.0625 kg/ha (of a.s.), Echinochloa crus galli (barnyardgrass)
Description: as §1, §2, §3, §4, §5

Sinapis alba = assay: as above; conditions: 0.125 or 0.0625 kg/ha (of a.s.), Sinapis alba (white mustard)
Description: as §1, §2, §3, §4, §5

Zea mays = assay: greenhouse test, post-emergence treatment, crop tolerance; conditions: 0.125 or 0.0625 kg/ha (of a.s.)
Description: as §1, §2, §3, §4, §5

CCON=Cc1c(S(C)(=O)=O)ccc(C(=O)C2C(=O)CC(C)(C)CC2=O)c1Cl [Compound 2.07, 2-(2-Chloro-3-ethoxyiminomethyl-4-methylsulfonylbenzoyl)-5,5-dimethyl-1,3-cyclohexanedione]
herbicidal activity against harmful plants (Chenopodium album): very good activity
herbicidal activity against harmful plants (Echinochloa crus galli): very good activity
herbicidal activity against harmful plants (Sinapis alba): very good activity
tolerance in crop plant maize (Zea mays): well tolerated
